pIC50: −log10 of the molar value.
Experiments:
Rattus norvegicus = organism: Rattus norvegicus; assay: Anti-angiogenic activity as inhibition of microvessel growth in rat aortic ring cultured in a fibrin clot; format: functional; details: Aorta
[1] = Compound was evaluated for ocular toxicity assessed after oral dosing at 40 mg/kg b.i.d. in male Wistar rat; No; format: organism-based, Eye; set-up: dose 40 mg/kg, route oral; details: in vivo
[2] = Compound was evaluated for ocular toxicity assessed after oral dosing at 40 mg/kg b.i.d. in male Wistar rat; Yes; format: organism-based, Eye; set-up: dose 40 mg/kg, route oral; details: in vivo
3LL cell line [3] = assay: In vivo anti-tumor and anti-metastatic activity was measured after oral dosing 15 mg/kg b.i.d. to B6D2F1 mice bearing metastatic 3LL Lewis lung tumor; format: functional; details: Mus musculus
[4] = Compound was evaluated for ocular toxicity assessed after oral dosing at 40 mg/kg b.i.d. in male Wistar rat; Very weak; format: organism-based, Eye; set-up: dose 40 mg/kg, route oral; details: in vivo
3LL cell line [5] = assay: In vivo anti-tumor and anti-metastatic activity was measured after oral dosing b.i.d. to B6D2F1 mice bearing metastatic 3LL Lewis lung tumor; format: functional, Mus musculus

SMILES	pIC50 (Rattus norvegicus)	Eye toxicity [1]	also measured
Cc1nsc(-c2ccc(N3CCN(c4cccc(N)c4)CC3)nn2)n1	< 7.00		
Nc1nsc(-c2ccc(N3CCN(c4cccc(C(F)(F)F)c4)CC3)nn2)n1	7.70	No toxicity	
Cc1nsc(-c2ccc(N3CCN(c4cc(Cl)cc(Cl)c4)CC3)nn2)n1	> 10.00		Eye toxicity [2]: Yes
Cc1nsc(-c2ccc(N3CCN(c4cc(C(F)(F)F)cc(C(F)(F)F)c4)CC3)nn2)n1	> 10.00		Eye toxicity [2]: Yes
Cc1nsc(-c2ccc(N3CCN(c4cccc(C(F)(F)F)c4)CC3)cc2)n1	8.00	No toxicity	
Cc1nsc(-c2ccc(N3CCN(c4cccc(C#N)c4)CC3)nn2)n1	8.52		
CN(C)c1nsc(-c2ccc(N3CCC(N4CCN(c5cccc(C(F)(F)F)c5)CC4)CC3)nn2)n1	> 9.00		inhibition in vivo at 15 mg/kg (3LL cell line [3]): 25%; Eye toxicity [4]: Very weak
FC(F)(F)c1cc(N2CCN(c3ccc(-c4ncns4)nn3)CC2)cc(C(F)(F)F)c1	> 9.00	No toxicity	Inhibition (3LL cell line [5]): 24%
Cc1nsc(-c2nccc(N3CCN(c4cccc(C(F)(F)F)c4)CC3)n2)n1	< 7.00	No toxicity	
FC(F)(F)c1cccc(N2CCN(C3CCN(c4ccc(-c5ncns5)nn4)CC3)CC2)c1	9.52	No toxicity	inhibition in vivo at 15 mg/kg (3LL cell line [3]): 54%
Cc1nsc(-c2ccc(N3CCN(c4cccc([N+](=O)[O-])c4)CC3)nn2)n1	8.52		Eye toxicity [2]: Yes
FC(F)(F)c1cccc(NC2CCN(c3ccc(-c4ncns4)nn3)CC2)c1	8.15	No toxicity	inhibition in vivo at 15 mg/kg (3LL cell line [3]): 42%
Cc1nsc(-c2ccc(N3CCN(c4cccc(F)c4)CC3)nn2)n1	8.22		
CNc1nsc(-c2ccc(N3CCN(c4cccc(C(F)(F)F)c4)CC3)nn2)n1	8.52	No toxicity	
CN(C)c1nsc(-c2ccc(N3CCN(c4cccc(C(F)(F)F)c4)CC3)nn2)n1		No toxicity	inhibition in vivo at 15 mg/kg (3LL cell line [3]): 39%
Cc1nsc(-c2ccc(N3CCN(c4ccccc4C(F)(F)F)CC3)nn2)n1	9.70		Eye toxicity [2]: Yes
CCc1nsc(-c2ccc(N3CCN(c4cccc(C(F)(F)F)c4)CC3)nn2)n1	8.10	No toxicity	
Cc1nsc(-c2ccc(N3CCN(c4cccc(Cl)c4)CC3)nn2)n1	9.22		Eye toxicity [2]: Yes
CN(C)c1nsc(-c2ccc(N3CCN(c4ccccc4)CC3)nn2)n1	10.00	No toxicity	inhibition in vivo at 15 mg/kg (3LL cell line [3]): 13%
Cc1nsc(-c2ccc(N3CCN(c4ccc(C(F)(F)F)cc4)CC3)nn2)n1	7.92		
FC(F)(F)c1cccc(N2CCN(c3ccc(-c4ncns4)nn3)CC2)c1	7.15	No toxicity	
Cc1nsc(-c2ccc(N3CCN(c4cccc(C(F)(F)F)c4)CC3)nn2)n1	9.52		Eye toxicity [2]: Yes
Cc1nsc(-c2ccnc(N3CCN(c4cccc(C(F)(F)F)c4)CC3)n2)n1	< 7.00		
Cc1nsc(-c2ccc(N3CCN(c4cccc(C(F)(F)F)c4)CC3)nc2)n1	8.30	No toxicity	
COc1cccc(N2CCN(c3ccc(-c4nc(C)ns4)nn3)CC2)c1	8.15		
